Results reported in patent publication US20190125753A1, “COMPOUNDS AND METHODS FOR INCREASING HEMATOPOIESIS” (University of Southern California, priority 2016, published 2019).

Experiments:
LSK150+41+48+ cells = assay: RNA sequencing of progenitor population from treated mice; format: in vivo, mouse; details: 2 mg/kg vs DMSO, 16 hours
Method: DMSO or YH250 (2 mg/kg) were administrated to female C57/Black mice.

cord blood CD34+ cells [1] = assay: Cord blood CD34+ cell culture, colony morphology at day 8; format: cell-based, human; details: 4GF medium, day 8 in culture
Method: Cord blood CD34^+ cells were cultured in serum free medium with different growth factor combination and different concentrations of YH250. We tested three serum free mediums with either 4 growth factors (4GF, or SF6T: SCF 100 ng/ml; Flt3 100 ng/ml, IL-6 20 ng/ml, and TPO 20 ng/ml) or 6 growth factors (6GF, or SF6TG3: SCF 100 ng/ml; Flt3 100 ng/ml, IL-6 20 ng/ml, TPO 20 ng/ml, GCSF 10 ng/ml, and IL-3 10 ng/ml). YH250 was at 0.3 μM or 1 μM concentration, DMSO, the solvent for YH250, was used as control. Frozen cord blood CD34+ cells were plated into 96 wells with different medium and different growth factors and different compound concentrations. At day 8 in culture, pictures were taken to record the cell growth and colony morphology (FIG. 12A).

cord blood CD34+ cells [2] = assay: Cord blood CD34+ cell culture 7 days, FACS surface marker analysis; format: cell-based, human; details: 7th day
Method: A method to analyze expanded cord blood CD34+ cell phenotype using FACS is established. In this study, cord blood cells were cultured in vitro with 4GF and different concentrations of p300/-catenin antagonist such as YH250. Because the limited CD34+ cells in culture system, GFP transgenic mouse bone marrow cells were isolated and added to the cells as carrier cells in FACS analysis. The bright GFP positive carrier cells were gated out and the targeting cord blood cells were further analyzed for their surface marker. FIG. 13A depicts carrier cell only in FACS analysis.
Cord blood CD34+ cells were cultured in medium containing either 4GF or 6GF with different concentration of p300/-catenin antagonist YH250. At 7th day in culture, cells were recovered and mixed with carrier cells from GFP mice bone marrow. Antibodies to human HSC surface protein are added to the cells and human CD45posit cells were gated for FACS analysis. […] In 6GF medium, 10 μM of YH250 also gives more human CD45+CD34+ cells compared with DMSO (73.3% vs 66.2%, Table 5).

[3] = tested on: lethally irradiated animals; assay: Survival after lethal dose whole body radiation; format: in vivo, mouse
Method: We next tested if YH250 can rescue animals from lethal dose radiation. […] However, YH250 (2 mg/Kg) administrated 24 hours post radiation rescued 50% of animals (Kaplan-Meier analysis p=0.0002).
With 8.5Gy radiation, all the animals (100%) survived in YH250 treatment group while there are only 30% animals survived in DMSO treatment group (p=0.0016, FIG. 21C). […] In principle, to optimize radiation remediation therapy, it should be advantageous to first (a) symmetrically expand the remaining viable stem cell pool (either HSC or ISC), using a method to enhance symmetric non-differentiative proliferation, i.e., by blocking the p300/catenin interaction thereby enhancing CBP/catenin signaling and (b) subsequently induce the differentiation of the stem cell pool via asymmetric divisions to enhance tissue repair and regeneration as rapidly as possible using a CBP/catenin antagonist. We therefore decided to test sequential administration of the p300/catenin antagonist YH250, followed by subsequent administration of the CBP/catenin antagonist ICG-001. An additional potential therapeutic benefit utilizing a CBP/catenin antagonist would be protection against fibrosis, which is a common chronic complication associated with radiation damage. […] We thus treated mice with either vehicle, YH250 (single 2 mg/Kg s.c., injection at 24 h post irradiation), ICG-001 (single 50 mg/Kg s.c., injection at 24 h post irradiation) or the combination of YH250/ICG-001, with YH250 (2 mg/Kg) given 24 h post irradiation followed by ICG-001 (50 mg/Kg) injection for 5 consecutive days starting at 48 h post-irradiation. After irradiation and the corresponding treatments, no special care was provided. The life-span after irradiation was observed on a daily basis and recorded.

## COc1cccc(CNC(=O)N2C3CN(Cc4cc(Cl)cc(Cl)c4N(C)C)C(=O)[C@H](Cc4ccc(O)cc4)N3C(=O)CN2C)c1OC (stereo partly drawn) [YH250]
LSK150+41+48+ cells
  Fold-Change Car1: −12.1 fold
  Fold-Change Gm26377 (miRNA): −3.19 fold
  Fold-Change Ighm: 2.36 fold
  Fold-Change Ighv11-2: 4.42 fold
  Fold-Change Igkv19-93: 3.12 fold
  Fold-Change Mid1: −2.8 fold
Cord blood CD34+ cells [1]
  colony morphology: more close to “stem cell colony” morphology
Cord blood CD34+ cells [2]; 4GF (SF6T), 1 μM, DMSO 3.9
  %34 + 38-45RA-33-: 3.5%
Cord blood CD34+ cells [2]; 4GF (SF6T), 1 μM, DMSO 4.5
  %33-45RA-: 5.0%
Cord blood CD34+ cells [2]; 4GF (SF6T), 1 μM, DMSO 12.2
  % CD3+: 16.0%
Cord blood CD34+ cells [2]; 4GF (SF6T), 1 μM, DMSO 64.5
  %34 + 38-: 51.7%
Cord blood CD34+ cells [2]; 4GF (SF6T), 1 μM, DMSO 79.1
  %34+: 64.1%
Cord blood CD34+ cells [2]; 4GF (SF6T), 3 μM
  %33-45RA-: 5.8%
  %34+: 84%
  %34 + 38-: 65.5%
  %34 + 38-45RA-33-: 5.2%
  % CD3+: 9.5%
Cord blood CD34+ cells [2]; 4GF (SF6T), 10 μM
  %33-45RA-: 4.9%
  %34+: 89.1%
  %34 + 38-: 65.3%
  %34 + 38-45RA-33-: 4.5%
  % CD3+: 4.5%
Cord blood CD34+ cells [2]; 6GF (SF6T3G), 1 μM, DMSO 2.3
  %34 + 38-45RA-33-: 4.4%
Cord blood CD34+ cells [2]; 6GF (SF6T3G), 1 μM, DMSO 2.5
  %33-45RA-: 5.8%
Cord blood CD34+ cells [2]; 6GF (SF6T3G), 1 μM, DMSO 22.6
  % CD3+: 20.1%
Cord blood CD34+ cells [2]; 6GF (SF6T3G), 1 μM, DMSO 56.4
  %34 + 38-: 53.9%
Cord blood CD34+ cells [2]; 6GF (SF6T3G), 1 μM, DMSO 66.2
  %34+: 62%
Cord blood CD34+ cells [2]; 6GF (SF6T3G), 3 μM
  %33-45RA-: 5.6%
  %34+: 66.1%
  %34 + 38-: 55.8%
  %34 + 38-45RA-33-: 4.2%
  % CD3+: 18.8%
Cord blood CD34+ cells [2]; 6GF (SF6T3G), 10 μM
  %33-45RA-: 6.1%
  %34+: 73.3%
  %34 + 38-: 57.9%
  %34 + 38-45RA-33-: 4.2%
  % CD3+: 13.8%
[3]; 8.5Gy
  body weight vs DMSO: less body weight drop
[3]; 8.5Gy (LD70/60), 2 mg/Kg 24 hours post radiation, DMSO 30%, p=0.0016
  animals survived: 100%
[3]; 9Gy
  body weight: less body weight drop
[3]; 9Gy (LD100/60), 2 mg/Kg 24 hours post radiation, p=0.0002
  animals rescued (survival): 50%
[3]; YH250 2 mg/Kg s.c. 24 h post irradiation, combination followed by ICG-001 50 mg/Kg 5 consecutive days from 48 h
  life-span after irradiation vs control group: significantly extended life-spans
